# Data as given in patent US10745703B2, “Compositions and methods for treating cancer” (CASE WESTERN RESERVE UNIVERSITY, priority 2009, dated 2020).
# “Also recorded” adds a separate entry of the source. Where a SMILES comes first, the peptide text is derived from it. The star is where a group is joined. Decanoyl = CCCCCCCCCC(=O)*; Cbz = O=C(OCc1ccccc1)*; CH2Cl = ClC*
# How the values were obtained:
# Assay type in all cases: cell-based, human
# LN-229 cells = test: Scratch wound assay, LN-229 cells; conditions: for PTPμ fragment-mediated cell migration: LN-229 cells, DAPT 2 μM, GM6001 50 μM; for migration of LN-229 cells: peptide 5 μM, versus scrambled control, 24 hours
# Experimental: Confluent monolayers of cells were scratched to induce a wound and analyzed by microscopy for the distance migrated by the leading edge of the wound at 0 and 24 hrs.
# (§1) The Furin Inhibitor I (Dec-RVKR-CMK, Calbiochem, Gibbstown, N.J.) was used at 50 μM for 17-20 hours. The γ-secretase inhibitors DAPT (Sigma-Aldrich) and L-685,458 (Sigma-Aldrich) were used at 2 μM and 5 μM, respectively, for 17-20 hours. The proteasome was inhibited with MG132 (Sigma-Aldrich) at 20 μM or epoxomicin (Calbiochem) at 5 μM for 4 hours. GM6001 (Calbiochem) was used at 50 μM as an MMP/ADAM inhibitor for 17-20 hours. Inhibitors were reconstituted in DMSO, which was used as a vehicle control. […] The PTPμ wedge peptide and a scrambled control peptide were synthesized to include a membrane-penetrant Tat-derived sequence at the C-terminus to promote cellular uptake. Peptides synthesized by Genemed Synthesis (San Antonio, Tex.) or GenScript (Piscataway, N.J.) were reconstituted in water and added to cells at a final concentration of 5 μM.
# PTPμ = test: Proteolytic processing of PTPμ in LN-229 cells treated with protease inhibitors (biotinylation, immunoprecipitation, immunoblot); conditions: for endogenous PTPμ PΔE and ICD fragments: parental LN-229 cells, immunoprecipitation SK-18, immunoblot SK-7; for PTPμ PΔE and ICD fragments: total lysates of LN-229 cells overexpressing PTPμ or PTPμ-GFP; for furin cleavage of PTPμ (full-length PTPμ at the cell surface, P-subunit formation): LN-229 cells, cell surface biotinylation, inhibitor 50 μM, 17-20 hours
# Experimental: Cell lysates were prepared and immunoblotted using normalized samples of ˜20 μg protein detected with monoclonal antibodies recognizing the intracellular segment of PTPμ (SK-7 or SK-18) (Mol Cell Biochem 1993; 127-128: 131-41). An antibody against vinculin was from Sigma-Aldrich (St. Louis, Mo.). The GFP antibody JL-8 was from Clontech (Mountain View, Calif.).
# Cell surface biotinylation was performed using a Sulfo-NHS-SS-Biotin Kit (Pierce). Biotinylated proteins were isolated and resolved by SDS-PAGE on 6% gels followed by immunoblotting with an antibody to PTPμ (SK-18) as described (Mol Cancer Res 2008; 6: 1106-13).
# as §1
# Cells were grown to confluence, treated with inhibitors, and lysed in 20 mM Tris-HCL, pH 7.5, 1% Triton X-100, 150 mM NaCl, 2 mM EDTA, 1 mM benzamidine, aprotinin (5 μg/ml), leupeptin (5 μg/ml) and pepstatin (1 μg/ml). Samples were sonicated and centrifuged at 10,000 rpm for 5 minutes. Immunoprecipitations from ˜400 μg total protein were performed using a PTPμ antibody (SK-18) and resolved by SDS-PAGE on 8% gels followed by immunoblotting with an antibody to PTPμ (SK-7).
# U-87 MG cells = test: Scratch wound assay, U-87 MG cells
# Experimental: U-87 MG cells were infected with control or PTPμ shRNA lentivirus. After three days, confluent monolayers of cells were scratched with a 20 μl pipette tip to induce a wound. The wounded edges were imaged using a Nikon (Tokyo, Japan) TE200 inverted microscope and Spot RT digital camera and image acquisition software (Diagnostic Instruments, Inc., Sterling Heights, Mich.) Images were collected with a 10× objective 0, 6, 24, and 48 hours after wounding. Images were quantitated using MetaMorph software (Molecular Devices, Downingtown, Pa.) by measuring the width of the wound at each time point. The difference between the width of the wound at the zero time point and the time point being analyzed was divided by two. This value reflects the distance migrated by the leading edge of one side of the wound during a given time interval. Replicates were averaged and plotted using Microsoft Excel. Error bars indicate standard error. Data were analyzed for statistical significance using an unpaired student's t-test. Rac1 inhibition studies were performed using a Rac1-specific inhibitor from Calbiochem (Gibbstown, N.J.) (J Biol Chem. 2005;280:37516-37525; Proc Natl Acad Sci USA. 2004;101:7618-7623). For morphological studies, the inhibitor was dissolved in water and added at a final concentration of 100 μM just prior to scratching the cells. Cells were analyzed after 6 hours. For migration studies, the inhibitor was dissolved in water and added at a final concentration of 50 μM just prior to scratching the cells. Cells were analyzed after 24 hours.
molecule,measurement,setting,value
C[C@H](NC(=O)Cc1cc(F)cc(F)c1)C(=O)N[C@H](C(=O)OC(C)(C)C)c1ccccc1 [DAPT],PTPμ fragment-mediated cell migration,LN-229 cells,increased migration
same,endogenous PTPμ PΔE and ICD fragments,PTPμ,stabilized a fragment that corresponds by molecular weight to a membrane-tethered truncated P-subunit termed PΔE
same,PTPμ PΔE and ICD fragments,PTPμ,accumulation of PTPμ PΔE and ICD; also recorded: stabilized
CCN(CC)CCCC(C)Nc1nc(C)cc(Nc2ccc3nc(C)cc(N)c3c2)n1 (racemic) [Rac1 inhibitor],induction of lamellipodia in cells with reduced PTPμ expression,"U-87 MG cells; U-87 MG cells with PTPμ shRNA #1, inhibitor 100 μM, 6 hours",prevented the induction of lamellipodia; also recorded: blocked the formation of PTPμ-induced lamellipodia
same,migration induced by the loss of PTPμ (distance migrated by leading edge),"U-87 MG cells; U-87 MG cells with PTPμ shRNA, inhibitor 50 μM, 24 hours",significantly suppressed the migration; also recorded: significantly reduced the migration
same,effect on morphology of control U-87 MG cells,"U-87 MG cells; control shRNA U-87 MG cells, inhibitor 100 μM, 6 hours",no effect on morphology
CC[C@H](C)[C@H](NC(=O)[C@H]([C@@H](C)CC)N(C)C(C)=O)C(=O)N[C@H](C(=O)N[C@@H](CC(C)C)C(=O)[C@@]1(C)CO1)[C@@H](C)O [epoxomicin],PTPμ PΔE and ICD fragments,PTPμ,Stabilization of PTPμ ICD; also recorded: stabilized
CNC(=O)[C@H](Cc1c[nH]c2ccccc12)NC(=O)[C@@H](CC(=O)NO)CC(C)C [GM6001],PTPμ fragment-mediated cell migration,LN-229 cells,decreased migration
same,endogenous PTPμ PΔE and ICD fragments,PTPμ,limited the formation of PTPμ PΔE and ICD fragments
"CC(C)C[C@H](NC(=O)[C@H](Cc1ccccc1)C[C@@H](O)[C@H](Cc1ccccc1)NC(=O)OC(C)(C)C)C(=O)N[C@@H](Cc1ccccc1)C(N)=O [L685,458, L-685,458]",PTPμ PΔE and ICD fragments,PTPμ,accumulation of PTPμ PΔE and ICD; also recorded: stabilized
"CCCCCCCCCC(=O)N[C@@H](CCCN=C(N)N)C(=O)N[C@H](C(=O)N[C@@H](CCCCN)C(=O)N[C@@H](CCCN=C(N)N)C(=O)CCl)C(C)C [Furin Inhibitor I, Dec-RVKR-CMK] (Decanoyl-RVKR-CH2Cl)","furin cleavage of PTPμ (full-length PTPμ at the cell surface, P-subunit formation)",PTPμ; listed as inhibitor of furin,prevented P-subunit formation
same,"furin cleavage of PTPμ (full-length PTPμ at the cell surface, P-subunit formation)",PTPμ; listed as inhibitor of furin activity,accumulation of full-length PTPμ (200 kDa) at the cell surface
PTPμ wedge peptide: Peptide targeting the helix-loop-helix wedge domain of PTPμ with a membrane-penetrant Tat-derived sequence at the C-terminus (likely SEQ ID NO: 5) (DLLQHITQMKCAEGYGFKEEYESGRKKRRQRRRC),migration of LN-229 cells,LN-229 cells,significantly reduced migration
same,migration of LN-229 cells,LN-229 cells; listed as PTPμ wedge inhibitor peptide,statistically significant difference in migration
CC(C)C[C@@H](C=O)NC(=O)[C@H](CC(C)C)NC(=O)[C@H](CC(C)C)NC(=O)OCc1ccccc1 [MG132] (Cbz-Leu-Leu-Leu-aldehyde),endogenous PTPμ PΔE and ICD fragments,PTPμ,accumulation of both PΔE and a soluble fragment termed PTPμ intracellular domain (ICD); also recorded: stabilized
same,PTPμ PΔE and ICD fragments,PTPμ,accumulation of PTPμ PΔE and ICD; also recorded: stabilized
